# According to ChEMBL document CHEMBL5584231, “Rational design of a new short anticancer peptide with good potential for cancer treatment” (Eur J Med Chem, 2024):
# Activity calls are given as the source filed them. The rule behind the calls is not given here.
# Experiments:
# Cell membrane [1] = test: Disruption of cell membrane in human MCF7 cells assessed as LDH release at 2.5 to 40 uM incubated for 1 hr by fluorescence based microplate reader analysis; assay type: cell membranes; settings: dose 2.5-40 µM
# [2] = Acute toxicity in female Balb/c mouse assessed as reduction in survival rate at 38 to 60 mg/kg, ip administered as single dose and measured for 7 days; assay type: organism-based; settings: in vivo, 168 h, dose 38-60 mg/kg, time 7 day
# MCF7 [3] = test: Cytotoxicity against human MCF7 cells assessed as cell survival at 2 times IC50 incubated for 12 hrs by MTT assay relative to control; assay type: functional
# [4] = Toxicity in female Balb/c mouse implanted with mouse 4T1 cells assessed as animal death at 12 micromol/kg, ip administered every other day for 2 weeks; assay type: organism-based; settings: in vivo, 336 h, dose 12 µmol/kg
# 4T1 [5] = test: Antitumor activity against mouse 4T1 cells implanted in female Balb/c mouse assessed as increase in tumor cell apoptosis at 12 micromol/kg, ip administered every other day for 2 weeks by H and E staining based analysis; assay type: functional, organism-based; settings: dose 12.0 µmol/kg
# MCF7 [6] = test: Cytotoxicity against human MCF7 cells assessed as cell killing at 1 times IC50 measured within 12 hrs by MTT assay; assay type: functional, cell-based
# [7] = Acute toxicity in ip dosed female Balb/c mouse administered as single dose and measured for 7 days by karber method; assay type: organism-based; settings: in vivo, time 7 day
# MCF7 [8] = test: Cytotoxicity against human MCF7 cells assessed as cell survival at 2 times IC50 incubated for 24 hrs by MTT assay relative to control; assay type: functional
# MCF7 [9] = test: Induction of apoptosis in human MCF7 cells assessed as increase in intracellular ROS generation at 1 times IC50 measured after 0 to 360 mins by DCFH-DA staining based analysis; assay type: functional, cell-based; settings: time 0-360 min
# 4T1 [10] = test: Antitumor activity against mouse 4T1 cells implanted in female Balb/c mouse assessed as reduction in tumor weight at 12 micromol/kg, ip administered every other day for 2 weeks and measured every 2 days relative to control; assay type: functional; design: scale not given: the % may be the effect or the level left; settings: dose 12 µmol/kg
# MCF7 [11] = test: Anti-invasion activity in human MCF7 cells assessed as reduction in number of passing cells on polycarbonate membrane at 1 times IC50 measured after 24 hrs by crystal violet staining based transwell assay; assay type: functional, cell-based
# Cell membrane [12] = test: Induction of cell membrane damage in human MCF7 cells assessed as protein leakage at 1 to 2 times IC50 measured after 0.5 to 6 hrs by UV based analysis; assay type: cell membranes; settings: time 0.5-6 hrs
# [13] = Toxicity in female Balb/c mouse implanted with mouse 4T1 cells assessed as reduction in body weight at 12 micromol/kg, ip administered every other day for 2 weeks and measured every 2 days; assay type: organism-based; settings: in vivo, 336 h, dose 12 µmol/kg
# [14] = Acute toxicity in female Balb/c mouse assessed as necrosis in kidney at approximately LD50 administered as single ip dose by H and E staining based analysis; assay type: organism-based; settings: in vivo
# [15] = Acute toxicity in female Balb/c mouse assessed as shrinking cytoplasm in kidney at approximately LD50 administered as single ip dose by H and E staining based analysis; assay type: organism-based; settings: in vivo
# MCF7 [16] = test: Cytotoxicity against human MCF7 cells assessed as cell killing at 1 times IC50 measured at 24 hrs by MTT assay; assay type: functional, cell-based
# MCF7 [17] = test: Induction of apoptosis in human MCF7 cells assessed as dead cells at 1 times IC50 measured after 24 hrs by Annexin V-FITC staining based flow cytometry analysis (reference value: 6.41%); assay type: functional
# Cell membrane [18] = test: Disruption of cell membrane integrity in human MCF7 cells assessed as increase in PI fluorescence at 1 to 2 times IC50 measured after 1 hr by laser confocal scanning microscopic analysis; assay type: cell membranes
# [19] = Acute toxicity in female Balb/c mouse assessed as reduction in survival rate at 30 mg/kg, ip administered as single dose and measured for 7 days; assay type: organism-based; settings: in vivo, 168 h, time 7 day
# [20] = Toxicity in female Balb/c mouse implanted with mouse 4T1 cells assessed as pathological changes in heart at 12 micromol/kg, ip administered every other day for 2 weeks by H and E staining based analysis; assay type: organism-based; settings: in vivo, 336 h, dose 12 µmol/kg
# 4T1 [21] = test: Antitumor activity against mouse 4T1 cells implanted in female Balb/c mouse assessed as increase in tumor cell necrosis at 12 micromol/kg, ip administered every other day for 2 weeks by H and E staining based analysis; assay type: functional, organism-based; settings: dose 12.0 µmol/kg
# MCF7 [22] = test: Cytotoxicity against human MCF7 cells assessed as cell viability at 2 times IC50 measured within 8 hrs by MTT assay; assay type: functional, cell-based
# [23] = Toxicity in female Balb/c mouse implanted with mouse 4T1 cells assessed as pathological changes in lung at 12 micromol/kg, ip administered every other day for 2 weeks by H and E staining based analysis; assay type: organism-based; settings: in vivo, 336 h, dose 12 µmol/kg
# [24] = Toxicity in female Balb/c mouse implanted with mouse 4T1 cells assessed as pathological changes in spleen at 12 micromol/kg, ip administered every other day for 2 weeks by H and E staining based analysis; assay type: organism-based; settings: in vivo, 336 h, dose 12 µmol/kg
# [25] = Toxicity in female Balb/c mouse implanted with mouse 4T1 cells assessed as pathological changes in kidney at 12 micromol/kg, ip administered every other day for 2 weeks by H and E staining based analysis; assay type: organism-based; settings: in vivo, 336 h, dose 12 µmol/kg
# 4T1 [26] = test: Antitumor activity against mouse 4T1 cells implanted in female Balb/c mouse assessed as reduction in tumor growth at 12 micromol/kg, ip administered every other day for 2 weeks and measured every 2 days; assay type: functional, organism-based; settings: dose 12.0 µmol/kg
# [27] = Acute toxicity in female Balb/c mouse assessed as heart damage at approximately LD50 administered as single ip dose by H and E staining based analysis; assay type: organism-based; settings: in vivo
# MCF7 [28] = test: Induction of apoptosis in human MCF7 cells assessed as live cells at 1 times IC50 measured after 24 hrs by Annexin V-FITC staining based flow cytometry analysis (reference value: 92%); assay type: functional
# Cell membrane [29] = test: Disruption of cell membrane integrity in human MCF7 cells assessed as increase in PI fluorescence at 1 times IC50 measured after 0 to 120 mins by laser confocal scanning microscopic analysis; assay type: cell membranes; settings: time 0-120 min
# MCF7 [30] = test: Induction of cell cycle arrest at G2/M phase in human MCF7 cells assessed as increase in cells at G2/M phase at 1 times IC50 measured after 24 hrs by PI/RNase staining based flow cytometry analysis; assay type: functional
# Cell membrane [31] = test: Induction of cell membrane damage in human MCF7 cells assessed as nucleic acid leakage at 1 to 2 times IC50 measured after 0.5 to 6 hrs by UV based analysis; assay type: cell membranes; settings: time 0.5-6 hrs
# MCF7 [32] = test: Induction of apoptosis in human MCF7 cells assessed as early apoptotic cells at 1 times IC50 measured after 24 hrs by Annexin V-FITC staining based flow cytometry analysis (reference value: 0.014%); assay type: functional
# MCF7 [33] = test: Induction of apoptosis in human MCF7 cells assessed as late apoptotic cells at 1 times IC50 measured after 24 hrs by Annexin V-FITC staining based flow cytometry analysis (reference value: 1.60%); assay type: functional
# [34] = Toxicity in female Balb/c mouse implanted with mouse 4T1 cells assessed as pathological changes in liver at 12 micromol/kg, ip administered every other day for 2 weeks by H and E staining based analysis; assay type: organism-based; settings: in vivo, 336 h, dose 12 µmol/kg
# MCF7 [35] = test: Antimigratory activity in human MCF7 cells assessed as reduction in cell migration at 1 times IC50 measured after 24 hrs by scratch-wound healing assay; assay type: functional, cell-based
# Cell membrane [36] = test: Disruption of cell membrane integrity in human MCF7 cells assessed as increase in PI fluorescence at 2 times IC50 measured after 0 to 120 mins by laser confocal scanning microscopic analysis; assay type: cell membranes; settings: time 0-120 min
# MCF7 [37] = test: Effect on cell cycle progression in human MCF7 cells at 1 times IC50 measured after 1 hr by PI/RNase staining based flow cytometry analysis; assay type: functional
# Cell membrane [38] = test: Induction of morphological changes in cell membrane of human MCF7 cells assessed as effect on normal cell shape with intact membrane surface at 1 to 2 times IC50 incubated for 1 hr by SEM analysis; assay type: cell membranes
compound,measurement,setting,value
CC(=O)O[C@H]1C(=O)[C@@]2(C)[C@H]([C@H](OC(=O)c3ccccc3)[C@]3(O)C[C@H](OC(=O)[C@H](O)[C@@H](NC(=O)c4ccccc4)c4ccccc4)C(C)=C1C3(C)C)[C@]1(OC(C)=O)CO[C@@H]1C[C@@H]2O [PACLITAXEL],Activity,Cell membrane [1],inactive
same,Activity,[2],Toxic
same,Survival,MCF7 [3],~23.8%
same,Activity,[4],Non-Toxic
same,Activity,4T1 [5],Active
same,Activity,MCF7 [6],inactive
same,LD50 at 168 h,[7],39.7 mg/kg
same,Survival,MCF7 [8],~9.7%
same,Activity,MCF7 [9],Active
same,Activity,4T1 [10],21.6%
same,Activity,MCF7 [11],Active
same,Activity,Cell membrane [12],inactive
same,Activity,[13],Non-Toxic
same,Activity,[14],Toxic
same,Activity,[15],Toxic
same,Activity,MCF7 [16],Active
same,Activity,MCF7 [17],1.13%
same,Activity,Cell membrane [18],inactive
same,Activity,[19],Non-Toxic
same,Activity,[20],Non-Toxic
same,Activity,4T1 [21],Active
same,Activity,MCF7 [22],inactive
same,Activity,[23],Non-Toxic
same,Activity,[24],Non-Toxic
same,Activity,[25],Non-Toxic
same,Activity,4T1 [26],Active
same,Activity,[27],Non-Toxic
same,Activity,MCF7 [28],30.2%
same,Activity,Cell membrane [29],inactive
same,Activity,MCF7 [30],Active
same,Activity,Cell membrane [31],inactive
same,Activity,MCF7 [32],48.4%
same,Activity,MCF7 [33],20.3%
same,Activity,[34],Non-Toxic
same,Activity,MCF7 [35],Active
same,Activity,Cell membrane [36],inactive
same,Activity,MCF7 [37],inactive
same,Activity,Cell membrane [38],inactive
